Converted amounts (≈) assume the structure as drawn.
Columns and labels:
M. globosa ATCC MYA-4612 = test: Disc-diffusion assay, perfumery materials in DMSO, M. globosa; type: cell-based, Malassezia globosa; details: for zone of inhibition at 0.2 % / zone of inhibition at 2 % / zone of inhibition at 1 %: Malassezia globosa, 144 h; for Inhibition zone (mm) M. globosa: 20 μL on 6 mm disc, 6 days, NI means no inhibition zone
Experimental: (§1) Anti-Malassezia effect of perfumery materials in solvent in DMSO was determined using disc-diffusion assay, based on the method of J Mycol Infect 2018: 23: 91-98. In brief, working cultures of Malassezia strains were prepared from −80 C stock culture on mDixon agar plate (for M. furfur DSM 6170) or mLN agar plate (for M. restricta ATCC MYA-4611 and M. globosa ATCC MYA-4612), and cells were suspended in 0.9% saline, and spread onto mDixon or mLN agar surface to prepare lawn plate. Test samples solutions are prepared in DMSO to final concentrations of 0.2%, 1% or 2%. Discs (Whatman, 6 mm in diameter) were placed on inoculated agar plates with each Malassezia strains respectively, including M. furfur DSM 6170, M. restricta ATCC MYA-4611, and M. globosa ATCC MYA-4612. Aliquots (20 μL) of each sample solution was added to each disc. Agar plates were incubated at 30° C. for 3 days for M. furfur DSM 6170, and 6 days for M. restricta ATCC MYA-4611, and M. globosa ATCC MYA-4612. After incubation, diameters of the clear inhibition zones around the discs were measured. Inhibition zone greater than 6 mm are regarded as having anti-Malassezia effect.

[1] = tested on: M. restricta ATCC MYA-4611; test: Disc-diffusion assay, perfumery materials in DMSO, M. restricta; type: cell-based, Malassezia restricta; details: for zone of inhibition at 0.2 % / zone of inhibition at 1 % / zone of inhibition at 2 %: Malassezia restricta, 144 h; for Inhibition zone (mm) M. restricta: 20 μL on 6 mm disc, 6 days, NI means no inhibition zone
Experimental: as §1

[2] = tested on: Malassezia furfur DSM 6170; test: MIC assay on Malassezia furfur DSM 6170 (resazurin); type: cell-based; details: 30° C., 48 h aerobically, dilutions 29 to 10000 ppm; for MIC: Malassezia furfur, DSM6170
Experimental: The MIC assay for Malassezia furfur DSM 6170 was modified based on the method in Journal of Clinical Microbiology 2017, Vol 55: 1883-1893. In brief, working culture was prepared from stock cultures stored at −80° C. to obtain a cell suspension as the inoculum. Serial dilutions of samples, 29 to 10000 ppm, were tested to determine the MIC values for growth of Malassezia furfur DSM 6170 after at 30° C. for 48 h aerobically. Resazurin was used as growth indicator.
(§2) A total of 26 perfumery materials were examined for an inhibition effect on Malassezia furfur and Staphylococcus aureus.

[3] = tested on: Staphylococcus aureus ATCC 6538; test: MIC assay on Staphylococcus aureus ATCC 6538; type: cell-based; details: TSB, 37° C., 24 h aerobically, dilutions 29 to 10000 ppm; for MIC: Staphylococcus aureus, ATCC6538, read-out: MIC (ppm) S. aureus
Experimental: MIC assay for Staphylococcus aureus ATCC 6538 is based on Clinical Laboratory Standard Institute: CLSI/NCCLS M07-A8. Cell suspension of working cultures of S. aureus was prepared following the instructions of culture provider ATCC, USA.
as §2

M. furfur DSM 6170 = test: Disc-diffusion assay, perfumery materials in DMSO, M. furfur; type: cell-based, Malassezia furfur; details: for zone of inhibition at 2 %: Malassezia furfur, DSM6170, 72 h
Experimental: as §1

M. restricta [4] = test: Disc-diffusion assay, combinations with piroctone olamine (PO) in DMSO, M. restricta; type: cell-based, Malassezia restricta; details: 4 days, ratio greater than 1.0 = boosting effect
Experimental: Anti-Malassezia effect of combinations of PO and perfumery materials in solvent DMSO against M. restricta was determined using disc-diffusion assay as described above. Aliquots (20 μL) of each sample solution was added to each disc. Agar plates were incubated at 30° C. for 4 days. After incubation, diameters of the clear inhibition zones around the discs were measured. Ratio of inhibition zone diameter of each combination to that of PO only were calculated. […] Anti-Malassezia effect of combinations of PO and perfumery raw materials mixtures in solvent DMSO was determined using disc-diffusion assay, as described above. Aliquots (20 μL) of each sample solution was added to each disc. Agar plates were incubated at 30° C. for 4 days. After incubation, diameters of the clear inhibition zones around the discs were measured. Ratio of inhibition zone diameter of each combination to that of PO only were calculated.

M. restricta [5] = test: Disc-diffusion assay, additional perfumery materials in DMSO, M. restricta, 4 days; type: cell-based, Malassezia restricta; details: Malassezia restricta, 96 h; Table 20; 0.5% in DMSO, 4 days; read-out: Inhibition zone diameter (mm) on M. restricta
Experimental: (§3) Anti-Malassezia effect of additional perfumery materials in DMSO was determined using disc-diffusion assay as described previously. Test samples solutions were prepared in DMSO to final concentrations of 0.5%, 1% or 2%. Discs (Whatman, 6 mm in diameter) were placed on inoculated agar plates. Aliquots (20 μL) of each sample solution was added to each disc. Agar plates were incubated at 30° C. for 4 days. After incubation, diameters of the clear inhibition zones around the discs were recorded
as §3, with “above.” for “previously.”, “recorded.” for “recorded”
Anti-Malassezia effect of additional perfumery materials in solvent in DMSO was determined using disc-diffusion assay, as described previously. Test samples solutions are prepared in DMSO to final concentrations of 0.5%. Discs (Whatman, 6 mm in diameter) were placed on inoculated agar plates. Aliquots (20 μL) of each sample solution was added to each disc. Agar plates were incubated at 30° C. for 4 days. After incubation, diameters of the clear inhibition zones around the discs were measured.

| Compound | zone of inhibition at 0.2 % (M. globosa ATCC MYA-4612) | zone of inhibition at 0.2 % [1] | MIC [2] | MIC [3] | zone of inhibition at 1 % [1] | zone of inhibition at 1 % (M. globosa ATCC MYA-4612) | also measured |
| --- | --- | --- | --- | --- | --- | --- | --- |
| CC(C)C1CCC(CO)CC1 (stereo not shown) [p-menthan-7-ol] | 6.5 mm | 6.7 mm | 222 µg/mL (≈ 1420 µM) | 625 µg/mL (≈ 4000 µM) |  |  | zone of inhibition at 2 % (M. furfur DSM 6170): 6.3 mm |
| CC(C)=CCC/C(C)=C/C=O [citral, (Z)-3,7-dimethyl-2,6-octadienal+(E)-3,7-dimethyl-2,6-octadienal] | 6.2 mm | 6.2 mm | 222 µg/mL (≈ 1460 µM) | 450 µg/mL (≈ 2960 µM) | 7.1 mm |  | zone of inhibition at 2 % (M. globosa ATCC MYA-4612): 8.7 mm; zone of inhibition at 2 % [1]: > 40 mm; Ratio of inhibition zone diameter (1% PRM + 0.35% PO) to 0.35% PO (M. restricta [4]): 1.1; zone of inhibition at 2 % (M. furfur DSM 6170): 8.6 mm |
| CC(C)(C)c1ccc(CCC=O)cc1 [cyclamen propanal, 3-(4-tert-butylphenyl)propanal] | 6.3 mm | 6.6 mm |  |  |  |  | zone of inhibition at 2 % (M. globosa ATCC MYA-4612): 7.9 mm; zone of inhibition at 2 % [1]: 12.3 mm |
| CCCCCCCCC1CCC(=O)O1 (racemic) [gamma-dodecalactone, (+/−)-5-octyldihydro-2(3h)-furanone] | 6.3 mm |  | 148 µg/mL (≈ 746 µM) | 173 µg/mL (≈ 872 µM) |  |  | zone of inhibition at 2 % (M. furfur DSM 6170): 6.9 mm |
| cyclopropylmethyl (3Z)-3-hexenoate + cyclopropylmethyl (3E)-3-hexenoate |  |  |  |  |  |  | Inhibition zone (mm) M. globosa (M. globosa ATCC MYA-4612; 0.2% in DMSO): 8.7 mm; Inhibition zone (mm) M. globosa (M. globosa ATCC MYA-4612; 2% in DMSO): 13.0 mm; Inhibition zone (mm) M. restricta ([1]; 0.2% in DMSO): 6.3 mm; Inhibition zone (mm) M. restricta ([1]; 2% in DMSO): 11.0 mm; MIC (ppm) M. furfur [2]: 333 ppm; MIC (ppm) S. aureus [3]: 625 ppm; Inhibition zone (mm) M. furfur (M. furfur DSM 6170; 2% in DMSO, 20 μL on 6 mm disc, 3 days, NI means no inhibition zone): 8.0 mm |
| c1ccc2[nH]ccc2c1 [indole] | 6.3 mm |  | 259 µg/mL (≈ 2210 µM) | 693 µg/mL (≈ 5920 µM) |  | 15.2 mm |  |
| CCCCCCCCC(=O)O [nonanoic acid] |  |  |  |  |  |  | Ratio of inhibition zone diameter (0.5% PRM + 0.1% PO) to 0.1% PO (M. restricta [4]): 1.1; Ratio of inhibition zone diameter (1% PRM + 0.35% PO) to 0.35% PO (M. restricta [4]): 1.2 |
| COC(=O)c1c(C)cc(O)c(C)c1O [methyl 2,4-dihydroxy-3,6-dimethylbenzoate] | 7.4 mm | 6.3 mm | 290 µg/mL (≈ 1480 µM) | 111 µg/mL (≈ 566 µM) |  |  | zone of inhibition at 2 % (M. globosa ATCC MYA-4612): 9.2 mm; zone of inhibition at 2 % [1]: 12 mm; zone of inhibition at 2 % (M. furfur DSM 6170): 7 mm |
| C=CCCCCCCCCC=O [Mix 10-undecenal, 10-undecenal] | 7.1 mm | 6.5 mm |  |  | 12.7 mm | 14.1 mm |  |
| CCCCCc1cc(C)ccn1 [4-methyl-2-pentylpyridine] | 6.7 mm | 6.6 mm | 222 µg/mL (≈ 1360 µM) | 693 µg/mL (≈ 4240 µM) |  |  | zone of inhibition at 2 % (M. furfur DSM 6170): 6.7 mm |
| CCCCCCCCCCCCO [Mix 1-dodecanol, 1-dodecanol] | 8.7 mm | 6.8 mm |  | 22 µg/mL (≈ 118 µM) | 11.5 mm | 10.2 mm |  |
| COc1ccc(CC(C)C=O)cc1 (racemic) [para-anisyl propanal, (+/−)-3-(4-methoxyphenyl)-2-methylpropanal] |  | 6.6 mm | 222 µg/mL (≈ 1250 µM) | 530 µg/mL (≈ 2970 µM) | 14.3 mm | 11.6 mm | Ratio of inhibition zone diameter (0.5% PRM + 0.1% PO) to 0.1% PO (M. restricta [4]): 2.0; Ratio of inhibition zone diameter (1% PRM + 0.35% PO) to 0.35% PO (M. restricta [4]): 1.5 |
| CCOc1cc(C=O)ccc1O [ethyl vanillin, 3-ethoxy-4-hydroxybenzaldehyde] |  |  | 500 µg/mL (≈ 3010 µM) | 2670 µg/mL (≈ 16000 µM) |  |  | zone of inhibition at 2 % [1]: 19.5 mm |
| CCCCCCCC(=O)O [octanoic acid] |  |  |  |  |  |  | Ratio of inhibition zone diameter (1% PRM + 0.35% PO) to 0.35% PO (M. restricta [4]): 1.1 |
| CCCCCCCCCCO [Mix 1-decanol, 1-decanol] | 6.7 mm | 8.5 mm | 500 µg/mL (≈ 3160 µM) | 370 µg/mL (≈ 2340 µM) | 10 mm | 15.9 mm | zone of inhibition at 2 % (M. globosa ATCC MYA-4612): 16.4 mm; zone of inhibition at 2 % [1]: 25 mm |
| O=C/C=C/c1ccccc1 [cinnamaldehyde, (E)-3-phenyl-2-propenal] |  | 8.4 mm | 99 µg/mL (≈ 749 µM) | 293 µg/mL (≈ 2220 µM) | 34.5 mm | 17.6 mm | zone of inhibition at 2 % (M. globosa ATCC MYA-4612): 27.4 mm; zone of inhibition at 2 % [1]: 33.3 mm; Ratio of inhibition zone diameter (0.2% PRM + 0.1% PO) to 0.1% PO (M. restricta [4]): 1.4; Ratio of inhibition zone diameter (0.2% PRM + 0.35% PO) to 0.35% PO (M. restricta [4]): 1.3; Ratio of inhibition zone diameter (0.5% PRM + 0.1% PO) to 0.1% PO (M. restricta [4]): 3.4; zone of inhibition at 2 % (M. furfur DSM 6170): 16.5 mm |
| CCCCC(CC)CO (stereo not shown) [2-ethyl-1-hexanol] |  |  | 44 µg/mL (≈ 338 µM) | 867 µg/mL (≈ 6660 µM) | 6.4 mm | 6.7 mm | zone of inhibition at 2 % (M. furfur DSM 6170): 7.6 mm |
| CCCCCCCCCC(=O)O [decanoic acid] |  |  |  |  |  |  | Ratio of inhibition zone diameter (1% PRM + 0.35% PO) to 0.35% PO (M. restricta [4]): 1.1 |
| CC(C=O)Cc1ccc(C(C)C)cc1 (racemic) [cyclamen aldehyde, (+/−)-3-(4-isopropylphenyl)-2-methylpropanal] |  |  |  | 933 µg/mL (≈ 4900 µM) | 8.2 mm | 6.7 mm | zone of inhibition at 0.5 % (M. restricta [5]): 7.5 mm |
| CCCCCCC1CCCC(=O)O1 (stereo not shown) [delta-undecalactone, 6-hexyltetrahydro-2H-pyran-2-one] | 6.4 mm | 6.1 mm | 333 µg/mL (≈ 1810 µM) | 293 µg/mL (≈ 1590 µM) |  |  |  |
| CC(C=O)Cc1ccc(C(C)(C)C)cc1 (racemic) [lilial, (+/−)-2-methyl-3-[4-(2-methyl-2-propanyl)phenyl]propanal] |  |  |  | 325 µg/mL (≈ 1590 µM) |  | 7.4 mm |  |
| CCCCCCC#CC(=O)OC [methyl octine carbonate, methyl 2-nonynoate] |  | 6.4 mm |  |  | 6.7 mm | 10.3 mm |  |
| COc1ccc(C=O)cc1 [para-anisaldehyde, 4-methoxybenzaldehyde] |  |  | 500 µg/mL (≈ 3670 µM) |  |  |  | zone of inhibition at 2 % [1]: 13.4 mm |
| CC(C)c1cccc(C(C)CC=O)c1 (racemic) [floral butanal, (+/−)-3-(3-isopropylphenyl)butanal] |  |  | 1300 µg/mL (≈ 6830 µM) | 387 µg/mL (≈ 2030 µM) | 8.2 mm |  | zone of inhibition at 0.5 % (M. restricta [5]): 7.5 mm |
| CCOC(=O)C(C)CC (racemic) [ethyl 2-methyl butanoate, (+/−)-ethyl 2-methylbutanoate] |  |  |  |  |  | 6.6 mm |  |
| CCCCC[C@H]1C(=O)CC[C@@H]1CC(=O)OC (racemic) [methyl dihydrojasmonate, methyl 2-((1 RS,2RS)-3-oxo-2-pentylcyclopentyl)acetate] |  | 6.1 mm | 222 µg/mL (≈ 981 µM) | 330 µg/mL (≈ 1460 µM) |  |  |  |

From US20260207450A1, “ANTI-DANDRUFF COMPOSITIONS” (Firmenich SA, priority 2022, published 2026)
